Data as given in ChEMBL document CHEMBL1201862, “PubChem BioAssay data set” (2004).
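Briefly, cells in 96-well plates were exposed to five compound concentrations for 48 h, and endpoints were estimated by linear interpolation. GI50 = concentration required for 50% inhibition of growth.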 The source made the active and inactive calls. No stated cut-off is given here; in the data, active = GI50 up to about 1.1 µM and inactive = higher.

What was measured:
Test in all cases: NCI anticancer screen, dose series, 48 h
M14 = test system: M14
HCC 2998 = test system: HCC 2998
SW-620 = test system: SW-620
A498 = test system: A498
EKVX = test system: EKVX
HCT-116 = test system: HCT-116
SN12C = test system: SN12C
HOP-62 = test system: HOP-62
LOX IMVI = test system: LOX IMVI
OVCAR-8 = test system: OVCAR-8
OVCAR-3 = test system: OVCAR-3
K562 = test system: K562
DLD-1 = test system: DLD-1
HT-29 = test system: HT-29
HL-60 = test system: HL-60
NCI-H460 = test system: NCI-H460
786-0 = test system: 786-0
DMS-273 = test system: DMS-273
HOP-92 = test system: HOP-92
HCT-15 = test system: HCT-15
NCI-H226 = test system: NCI-H226
SK-MEL-2 = test system: SK-MEL-2
U-251 = test system: U-251
ACHN = test system: ACHN
SF-539 = test system: SF-539
OVCAR-4 = test system: OVCAR-4
TK-10 = test system: TK-10
UACC-257 = test system: UACC-257
HOP-18 = test system: HOP-18
SNB-78 = test system: SNB-78
SK-OV-3 = test system: SK-OV-3
LXFL 529 = test system: LXFL 529
CAKI-1 = test system: CAKI-1
IGROV-1 = test system: IGROV-1
SF-268 = test system: SF-268
SNB-75 = test system: SNB-75
COLO 205 = test system: COLO 205
SR = test system: SR
NCI-H23 = test system: NCI-H23
KM12 = test system: KM12
DMS-114 = test system: DMS-114
MOLT-4 = test system: MOLT-4
UACC-62 = test system: UACC-62
A549 = test system: A549
SF-295 = test system: SF-295
KM-20L2 = test system: KM-20L2
UO-31 = test system: UO-31
RPMI-8226 = test system: RPMI-8226
RXF 631 = test system: RXF 631
Malme-3M = test system: Malme-3M
RXF 393 = test system: RXF 393
SK-MEL-5 = test system: SK-MEL-5
SK-MEL-28 = test system: SK-MEL-28
M19-MEL = test system: M19-MEL
CCRF-CEM = test system: CCRF-CEM
OVCAR-5 = test system: OVCAR-5
XF498 = test system: XF498
NCI-H522 = test system: NCI-H522
SNB-19 = test system: SNB-19

In the case of `Cc1ccc(/C=N/NS(=O)(=O)c2ccccc2)c(C)c1`, the GI50 (M14) is reported as > 100 µM (inactive), the GI50 (HCC 2998) is reported as > 100 µM (inactive) and the GI50 (SW-620) is reported as > 100 µM (inactive). The GI50 (A498) was > 100 µM (inactive), the GI50 (EKVX) was > 100 µM (inactive) and the GI50 (HCT-116) was > 100 µM (inactive). The GI50 (SN12C) was > 100 µM (inactive), the GI50 (HOP-62) was > 100 µM (inactive) and the GI50 (LOX IMVI) was > 100 µM (inactive). The GI50 (OVCAR-8) was > 100 µM (inactive), the GI50 (OVCAR-3) was > 100 µM (inactive) and the GI50 (K562) was > 100 µM (inactive). For the same compound, the GI50 (DLD-1) was > 100 µM (inactive), the GI50 (HT-29) was > 100 µM (inactive) and the GI50 (HL-60) was > 100 µM (inactive). For the same compound, the GI50 (NCI-H460) was > 100 µM (inactive), the GI50 (786-0) was > 100 µM (inactive) and the GI50 (DMS-273) was > 100 µM (inactive). For the same compound, the GI50 (HOP-92) was > 100 µM (inactive), the GI50 (HCT-15) was greater than 100 µM and the GI50 (NCI-H226) was > 100 µM (inactive). For the same compound, the GI50 (SK-MEL-2) was > 100 µM (inactive), the GI50 (U-251) was > 100 µM (inactive) and the GI50 (ACHN) was > 100 µM (inactive). For the same compound, the GI50 (SF-539) was > 100 µM (inactive), the GI50 (OVCAR-4) was > 100 µM (inactive) and the GI50 (TK-10) was > 100 µM (inactive). For the same compound, the GI50 (UACC-257) was 80 µM (inactive), the GI50 (HOP-18) was > 100 µM (inactive) and the GI50 (SNB-78) was > 100 µM (inactive). The GI50 (SK-OV-3) was > 100 µM (inactive), the GI50 (LXFL 529) was > 100 µM (inactive) and the GI50 (CAKI-1) was > 100 µM (inactive). The GI50 (IGROV-1) was > 100 µM (inactive), the GI50 (SF-268) was > 100 µM (inactive) and the GI50 (SNB-75) was > 100 µM (inactive). The GI50 (COLO 205) was > 100 µM (inactive), the GI50 (SR) was > 100 µM (inactive) and the GI50 (NCI-H23) was > 100 µM (inactive). For the same compound, the GI50 (KM12) was > 100 µM (inactive), the GI50 (DMS-114) was > 100 µM (inactive) and the GI50 (MOLT-4) was > 100 µM (inactive). The GI50 (UACC-62) was > 100 µM (inactive), the GI50 (A549) was > 100 µM (inactive) and the GI50 (SF-295) was > 100 µM (inactive). The GI50 (KM-20L2) was > 100 µM (inactive), the GI50 (UO-31) was > 100 µM (inactive) and the GI50 (RPMI-8226) was > 100 µM (inactive). For the same compound, the GI50 (RXF 631) was > 100 µM (inactive), the GI50 (Malme-3M) was > 100 µM (inactive) and the GI50 (RXF 393) was > 100 µM (inactive). The GI50 (SK-MEL-5) was > 100 µM (inactive), the GI50 (SK-MEL-28) was > 100 µM (inactive) and the GI50 (M19-MEL) was > 100 µM (inactive). For the same compound, the GI50 (CCRF-CEM) was 78.9 µM (inactive), the GI50 (OVCAR-5) was > 100 µM (inactive) and the GI50 (XF498) was > 100 µM (inactive).

`COC(=O)c1c[nH]cc1CCCCc1c[nH]cc1C(=O)OC` was tested, and the GI50 (HCC 2998) was > 100 µM (inactive), the GI50 (SW-620) was > 100 µM (inactive) and the GI50 (A498) was > 100 µM (inactive). The GI50 (EKVX) was > 100 µM (inactive), the GI50 (HCT-116) was > 100 µM (inactive) and the GI50 (SN12C) was > 100 µM (inactive). The GI50 (HOP-62) was > 100 µM (inactive), the GI50 (LOX IMVI) was > 100 µM (inactive) and the GI50 (OVCAR-8) was > 100 µM (inactive). For the same compound, the GI50 (OVCAR-3) was > 100 µM (inactive), the GI50 (NCI-H522) was > 100 µM (inactive) and the GI50 (K562) was > 100 µM (inactive). The GI50 (HT-29) was > 100 µM (inactive), the GI50 (HL-60) was 73.3 µM (inactive) and the GI50 (NCI-H460) was > 100 µM (inactive). For the same compound, the GI50 (786-0) was 89.1 µM (inactive), the GI50 (DMS-273) was > 100 µM (inactive) and the GI50 (HOP-92) was 58.6 µM (inactive). The GI50 (NCI-H226) was > 100 µM (inactive), the GI50 (SK-MEL-2) was > 100 µM (inactive) and the GI50 (U-251) was > 100 µM (inactive). For the same compound, the GI50 (ACHN) was > 100 µM (inactive), the GI50 (SF-539) was > 100 µM (inactive) and the GI50 (OVCAR-4) was > 100 µM (inactive). The GI50 (TK-10) was > 100 µM (inactive), the GI50 (UACC-257) was > 100 µM (inactive) and the GI50 (HOP-18) was > 100 µM (inactive). For the same compound, the GI50 (SNB-78) was > 100 µM (inactive), the GI50 (SK-OV-3) was > 100 µM (inactive) and the GI50 (CAKI-1) was > 100 µM (inactive). For the same compound, the GI50 (IGROV-1) was > 100 µM (inactive), the GI50 (SF-268) was > 100 µM (inactive) and the GI50 (COLO 205) was > 100 µM (inactive). For the same compound, the GI50 (SR) was > 100 µM (inactive), the GI50 (NCI-H23) was > 100 µM (inactive) and the GI50 (KM12) was > 100 µM (inactive). The GI50 (MOLT-4) was > 100 µM (inactive), the GI50 (A549) was > 100 µM (inactive) and the GI50 (SF-295) was 73.3 µM (inactive). The GI50 (KM-20L2) was > 100 µM (inactive), the GI50 (SNB-19) was > 100 µM (inactive) and the GI50 (RXF 631) was > 100 µM (inactive). The GI50 (Malme-3M) was > 100 µM (inactive), the GI50 (RXF 393) was > 100 µM (inactive) and the GI50 (SK-MEL-28) was > 100 µM (inactive). The GI50 (M19-MEL) was > 100 µM (inactive), the GI50 (CCRF-CEM) was > 100 µM (inactive) and the GI50 (OVCAR-5) was > 100 µM (inactive). The GI50 (XF498) was 50 µM (inactive).
